Results published in BindingDB's records for doi:10.7270/Q2K072NW (Sanford-Burnham Center for Chemical Genomics, 2008).

Target: T1, Bcl-2-related protein A1 (Mus musculus, UniProt Q07440)
T1 sequence (Q07440 whole entry): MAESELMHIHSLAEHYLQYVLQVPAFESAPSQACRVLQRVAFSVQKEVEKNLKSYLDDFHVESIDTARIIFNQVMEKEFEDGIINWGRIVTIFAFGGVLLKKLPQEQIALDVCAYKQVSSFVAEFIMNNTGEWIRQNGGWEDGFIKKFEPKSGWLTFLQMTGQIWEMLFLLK
Assay: small-molecule antagonists of Bfl-1/BH3 interaction – biochemical, TR-FRET, mouse Bfl-1, confirmation (AID 621)

SMILES	IC50 [µM]
c1ccc(-c2ccc(C3=Nc4ncnn4C(c4ccco4)C3)cc2)cc1 (configuration not stated)	> 100
O=C1C(=O)N(c2ncccn2)C(c2cccc(Cl)c2)C1C(=O)c1ccco1 (configuration not stated) [2-(3-chlorophenyl)-3-(furan-2-carbonyl)-4-hydroxy-1-pyrimidin-2-yl-2H-pyrrol-5-one]	> 100
OCCCc1nc2n(n1)C(c1cccs1)CC(c1ccccc1)=N2 (configuration not stated) [3-(5-phenyl-7-thiophen-2-yl-1,7-dihydro-[1,2,4]triazolo[1,5-a]pyrimidin-2-yl)-1-propanol]	> 100
COCC=Nc1c(Cl)c(O)n(-c2ccc(Cl)c(Cl)c2)c1O [3-chloranyl-1-(3,4-dichlorophenyl)-4-(2-methoxyethylamino)pyrrole-2,5-dione]	4.96
O=C1C(=Nc2ccc(F)cc2)C(Cl)C(=O)N1c1ccc(Cl)c(Cl)c1 (configuration not stated) [3-chloranyl-1-(3,4-dichlorophenyl)-4-[(4-fluorophenyl)amino]pyrrole-2,5-dione]	96.5
Cc1ccc(N=C2C(=O)N(c3ccc(C)cc3)C(=O)C2Cl)cc1 (configuration not stated) [3-chloranyl-1-(4-methylphenyl)-4-[(4-methylphenyl)amino]pyrrole-2,5-dione]	2.54
COc1ccc(N2C(=O)C(=Nc3c(C)n(C)n(-c4ccccc4)c3=O)C(Cl)C2=O)cc1 (configuration not stated) [3-chloranyl-4-[(1,5-dimethyl-3-oxidanylidene-2-phenyl-pyrazol-4-yl)amino]-1-(4-methoxyphenyl)pyrrole-2,5-dione]	> 100
CCCN1CCC2=C(C#N)C(=N)C(C#N)(C#N)C(c3cccc(OC)c3OC)C2C1 (configuration not stated) [6-amino-8-(2,3-dimethoxyphenyl)-2-propyl-1,3,8,8a-tetrahydroisoquinoline-5,7,7-tricarbonitrile]	> 100
CN1CCC2=C(C#N)C(=N)C(C#N)(C#N)C(c3cccc(Cl)c3Cl)C2C1 (configuration not stated) [6-azanyl-8-[2,3-bis(chloranyl)phenyl]-2-methyl-1,3,8,8a-tetrahydroisoquinoline-5,7,7-tricarbonitrile]	> 100
CN1CCC2=C(C#N)C(=N)C(C#N)(C#N)[C@H](c3cccc(Cl)c3)C2C1 (stereo partly drawn) [(8S)-6-amino-8-(3-chlorophenyl)-2-methyl-1,3,8,8a-tetrahydroisoquinoline-5,7,7-tricarbonitrile]	> 100
Oc1c(Cl)c(N=Cc2ccccc2)c(O)n1-c1ccc(Cl)c(Cl)c1 [MLS-0067125.0001]	73.7
Cc1ccc(C2C3CN(C(C)C)CCC3=C(C#N)C(=N)C2(C#N)C#N)cc1 (configuration not stated) [SMR000034220]	> 100
